Tested on: L. acidophilus NCFM
Experiment: RNA-seq transcriptional analysis of L. acidophilus NCFM growing on plant glycosides
Type: cell-based, Lactobacillus acidophilus
[1] = LBA1481 D-ribose-binding protein precursor, COG G
[2] = LBA1482 Ribose ABC transporter, COG G
[3] = LBA1483 Ribose ABC transporter ATP binding protein, COG G
[4] = LBA1484 D-ribose pyranase, COG G
[5] = LBA1494 Lincomycin-resistance protein, COG GEPR
[6] = LBA1607 Phosphatidylserine decarboxylase precursor, COG I
[7] = LBA1632 NAD-dependent aldehyde dehydrogenase, COG C
[8] = LBA1653 Nicotinamide mononucleotide, COG H
[9] = LBA1684 Putative PTS system IIA component, COG G
[10] = LBA1689 Maltose-6′-phosphate Oucosidase, COG G
[11] = LBA1700 Transcriptional regulator-type, COG K
[12] = LBA1701 Melibiose operon regulatory protein, COG K
[13] = LBA1705 PTS system IIBC component, COG G
[14] = LBA1708 Transcriptional antiterminator, COG K
[15] = LBA1710 Thermostable pullulanase, COG G
[16] = LBA1812 Alpha-glucosidase II, COG G
[17] = LBA1870 Maltose phosphorylase, COG G
[18] = LBA1872 Oligo-1,6-glucosidase, COG G
[19] = LBA1955 Transcription regulator family protein, COG K
[20] = gene LBA0046 (Hypothetical protein)
[21] = gene LBA0149 (Putative nucleotide-binding protein)
[22] = gene LBA0263 (Hypothetical protein)

`O=c1ccc2cc(O[C@@H]3O[C@H](CO)[C@@H](O)[C@H](O)[C@H]3O)c(O)cc2o1` [Esculin] was tested, and the “Transcripts per million (rpm)” value (LBA1468 Beta-galactosidase small subunit, COG G) was 38.7 rpm, the “Log2 differential normalized TPM ratio compared to glucose” value [1] was 0.9 and the “Log2 differential normalized TPM ratio compared to lactose” value [1] was 0.1. The “Transcripts per million (rpm)” value [1] was 9.2 rpm, the “Log2 differential normalized TPM ratio compared to glucose” value [2] was 1 and the “Log2 differential normalized TPM ratio compared to lactose” value [2] was 0. For the same molecule, the “Transcripts per million (rpm)” value [2] was 8.1 rpm, the “Log2 differential normalized TPM ratio compared to glucose” value [3] was 0.4 and the “Log2 differential normalized TPM ratio compared to lactose” value [3] was −0.7. For the same molecule, the “Transcripts per million (rpm)” value [3] was 4.2 rpm, the “Log2 differential normalized TPM ratio compared to glucose” value [4] was 0.4 and the “Log2 differential normalized TPM ratio compared to lactose” value [4] was −0.3. The “Transcripts per million (rpm)” value [4] was 5.3 rpm, the “Log2 differential normalized TPM ratio compared to glucose” value (LBA1485 Ribokinase, COG G) was −0.3 and the “Log2 differential normalized TPM ratio compared to lactose” value (LBA1485 Ribokinase, COG G) was −1. For the same molecule, the “Transcripts per million (rpm)” value (LBA1485 Ribokinase, COG G) was 2.7 rpm, the “Log2 differential normalized TPM ratio compared to glucose” value [5] was 3.6 and the “Log2 differential normalized TPM ratio compared to lactose” value [5] was 3.6. The “Transcripts per million (rpm)” value [5] was 69.4 rpm, the “Log2 differential normalized TPM ratio compared to glucose” value [6] was 1.5 and the “Log2 differential normalized TPM ratio compared to lactose” value [6] was 0.5. The “Transcripts per million (rpm)” value [6] was 59.5 rpm, the “Log2 differential normalized TPM ratio compared to glucose” value [7] was 3.3 and the “Log2 differential normalized TPM ratio compared to lactose” value [7] was 1.5. For the same molecule, the “Transcripts per million (rpm)” value [7] was 730.5 rpm, the “Log2 differential normalized TPM ratio compared to glucose” value [8] was 2 and the “Log2 differential normalized TPM ratio compared to lactose” value [8] was 1.4. The “Transcripts per million (rpm)” value [8] was 996.7 rpm, the “Log2 differential normalized TPM ratio compared to glucose” value [9] was 2.9 and the “Log2 differential normalized TPM ratio compared to lactose” value [9] was 1. For the same molecule, the “Transcripts per million (rpm)” value [9] was 98.9 rpm, the “Log2 differential normalized TPM ratio compared to glucose” value [10] was 1.8 and the “Log2 differential normalized TPM ratio compared to lactose” value [10] was 0.3. For the same molecule, the “Transcripts per million (rpm)” value [10] was 12.7 rpm, the “Log2 differential normalized TPM ratio compared to glucose” value [11] was 1.5 and the “Log2 differential normalized TPM ratio compared to lactose” value [11] was 1. For the same molecule, the “Transcripts per million (rpm)” value [11] was 61.9 rpm, the “Log2 differential normalized TPM ratio compared to glucose” value [12] was 4.9 and the “Log2 differential normalized TPM ratio compared to lactose” value [12] was 4.1. For the same molecule, the “Transcripts per million (rpm)” value [12] was 1259.8 rpm, the “Log2 differential normalized TPM ratio compared to glucose” value [13] was 2.2 and the “Log2 differential normalized TPM ratio compared to lactose” value [13] was 1.3. The “Transcripts per million (rpm)” value [13] was 15.9 rpm, the “Log2 differential normalized TPM ratio compared to glucose” value [14] was 1.4 and the “Log2 differential normalized TPM ratio compared to lactose” value [14] was 0. For the same molecule, the “Transcripts per million (rpm)” value [14] was 1.6 rpm, the “Log2 differential normalized TPM ratio compared to glucose” value [15] was 0.3 and the “Log2 differential normalized TPM ratio compared to lactose” value [15] was −0.1. For the same molecule, the “Transcripts per million (rpm)” value [15] was 9.6 rpm, the “Log2 differential normalized TPM ratio compared to glucose” value (LBA1723 Transposase, COG L) was 0 and the “Log2 differential normalized TPM ratio compared to lactose” value (LBA1723 Transposase, COG L) was −0.2. For the same molecule, the “Transcripts per million (rpm)” value (LBA1723 Transposase, COG L) was 55.8 rpm, the “Log2 differential normalized TPM ratio compared to glucose” value [16] was 2.8 and the “Log2 differential normalized TPM ratio compared to lactose” value [16] was 0.8. For the same molecule, the “Transcripts per million (rpm)” value [16] was 120.6 rpm, the “Log2 differential normalized TPM ratio compared to glucose” value [17] was 0 and the “Log2 differential normalized TPM ratio compared to lactose” value [17] was 1.2. The “Transcripts per million (rpm)” value [17] was 109.2 rpm, the “Log2 differential normalized TPM ratio compared to glucose” value (LBA1871 Neopullulanase, COG G) was 2.1 and the “Log2 differential normalized TPM ratio compared to lactose” value (LBA1871 Neopullulanase, COG G) was 1.4. For the same molecule, the “Transcripts per million (rpm)” value (LBA1871 Neopullulanase, COG G) was 12.2 rpm, the “Log2 differential normalized TPM ratio compared to glucose” value [18] was 1 and the “Log2 differential normalized TPM ratio compared to lactose” value [18] was 0.6. The “Transcripts per million (rpm)” value [18] was 6.3 rpm, the “Log2 differential normalized TPM ratio compared to glucose” value (LBA1873 Acetate kinase, COG C) was 0.8 and the “Log2 differential normalized TPM ratio compared to lactose” value (LBA1873 Acetate kinase, COG C) was −0.5. The “Transcripts per million (rpm)” value (LBA1873 Acetate kinase, COG C) was 6.4 rpm, the “Log2 differential normalized TPM ratio compared to glucose” value (LBA1878 Glycerol kinase, COG C) was 2.1 and the “Log2 differential normalized TPM ratio compared to lactose” value (LBA1878 Glycerol kinase, COG C) was 2. The “Transcripts per million (rpm)” value (LBA1878 Glycerol kinase, COG C) was 38 rpm, the “Log2 differential normalized TPM ratio compared to glucose” value [19] was −1.3 and the “Log2 differential normalized TPM ratio compared to lactose” value [19] was −0.9. For the same molecule, the “Transcripts per million (rpm)” value [19] was 218.2 rpm, the “number of up-regulated genes” value (RNA-seq, compared to glucose) was 87 genes and the “number of uniquely induced genes” value (RNA-seq, up-regulated genes not shared with the other PGs) was 35. For the same molecule, the “Log2 differential normalized TPM ratio compared to glucose” value [20] was 2.2, the “Log2 differential normalized TPM ratio compared to lactose” value [20] was 1.5 and the “Transcripts per million (rpm)” value [20] was 1439.6 rpm. For the same molecule, the “Log2 differential normalized TPM ratio compared to glucose” value [21] was 1.4, the “Log2 differential normalized TPM ratio compared to lactose” value [21] was 0.6 and the “Transcripts per million (rpm)” value [21] was 1325.7 rpm. For the same molecule, the “Log2 differential normalized TPM ratio compared to glucose” value [22] was 1.8, the “Log2 differential normalized TPM ratio compared to lactose” value [22] was 1.1 and the “Transcripts per million (rpm)” value [22] was 59.9 rpm.
